Data: PubChem BioAssay (NCI)
Where “and” joins values, the source holds several entries; their conditions need not be identical. Equal values may be shown once.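 Five concentrations, 48 hours, 96-well plates. At the GI50, growth is halved. TGI marks complete inhibition of growth.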 *1 amine or outer side, *2 acyl side, *3 side chain or, on linkers, in order; H or OH if unused. Where a SMILES comes first, the peptide text is derived from it. [ ]: non-standard residue; d: D form. The star is where a group is joined. X12 = NCCCCC(N[*:1])C(=O)CN1CCCC1C(=O)[*:2]; Pentadecanoyl = CCCCCCCCCCCCCCC(=O)*

Columns and labels:
Assay in all cases: DTP human tumour cell line panel, 48 h
RPMI-8226 leukemia = test system: RPMI-8226 leukemia
U251 CNS = test system: U251 CNS
LOX IMVI melanoma = test system: LOX IMVI melanoma
PC-3 prostate = test system: PC-3 prostate
BT-549 breast = test system: BT-549 breast
HCT-15 colon = test system: HCT-15 colon
MCF7 breast = test system: MCF7 breast
CCRF-CEM leukemia = test system: CCRF-CEM leukemia
SNB-19 CNS = test system: SNB-19 CNS
UACC-62 melanoma = test system: UACC-62 melanoma

SMILES	GI50 (RPMI-8226 leukemia)	TGI (RPMI-8226 leukemia)	GI50 (U251 CNS)	TGI (U251 CNS)	GI50 (LOX IMVI melanoma)	TGI (LOX IMVI melanoma)	GI50 (PC-3 prostate)	TGI (PC-3 prostate)	GI50 (BT-549 breast)	TGI (BT-549 breast)	GI50 (HCT-15 colon)	TGI (HCT-15 colon)	GI50 (MCF7 breast)	TGI (MCF7 breast)	GI50 (CCRF-CEM leukemia)	GI50 (SNB-19 CNS)	TGI (CCRF-CEM leukemia)	TGI (UACC-62 melanoma)	TGI (SNB-19 CNS)	GI50 (UACC-62 melanoma)
COc1ccc(Nc2ccnc3cc(Cl)ccc23)cc1CN(CCCl)CCCl	1150 nM	4.85 µM	1790 nM	> 100 µM	724 nM	4.39 µM	2050 nM	> 100 µM	1.78 µM	13 µM	1850 nM	6.44 µM	0.633 µM	6.42 µM	664 nM	1.5 µM				
CC1CC2OC(=N)C1(C#N)C2(C#N)C#N (stereo unspecified)		48 µM		> 100 µM		31 µM		71.7 µM				30.6 µM		> 100 µM			44.3 µM	> 100 µM	> 100 µM	
[O-][n+]1cc(SCc2ccccc2)ncc1SCc1ccccc1		> 10 µM		> 10 µM		> 10 µM		> 10 µM		> 10 µM		> 10 µM		> 10 µM			> 10 µM	> 10 µM		
CCCCCCCCCCCCCCC(=O)NC(CCCCN)C(=O)CN1CCCC1C(=O)NCC(=O)NC(Cc1ccccc1)C(=O)N1CCCC1C(=O)NC(CO)C(=O)NC(Cc1ccc(O)cc1)C(=O)NC(CCCCN)C(=O)NC(CC(C)C)C(=O)NC(CCCN=C(N)N)C(=O)N1CCCC1C(=O)NCC(N)=O (stereo unspecified) (Pentadecanoyl-[X12]GFPSYKLRPG-NH2; configuration not given here)	14700 nM	30.8 µM							29.6 µM	59.6 µM			27.6 µM	61.3 µM	16800 nM	24.4 µM	32.2 µM		50.4 µM	
C/C(=N\Nc1nc2ccccc2n1C)c1ccncn1				> 32.9 µM				> 100 µM		> 100 µM		> 88.1 µM		> 100 µM			> 52.6 µM		> 100 µM	
COC1OC(=O)C(OC)C(OC)C1OC (stereo unspecified)		> 100 µM		> 100 µM		> 100 µM		> 100 µM		> 100 µM		> 100 µM		> 100 µM				> 100 µM	> 100 µM	
O=C(CSCC(=O)N/N=C\c1cccc(Br)c1)N/N=C\c1cccc(Br)c1				28.8 µM		23.5 µM		38.1 µM		48.2 µM		86.5 µM		> 100 µM				29.4 µM	> 100 µM	
COc1ccc(Cn2nc(OCc3ccccc3)c3cc([N+](=O)[O-])ccc32)cc1		> 100 µM				> 100 µM						> 100 µM		> 100 µM			> 100 µM	> 100 µM	> 100 µM	
Cc1cccc(-c2cc(=O)c3cc(C)cnc3[nH]2)c1		30.1 µM		> 100 µM		> 100 µM		> 56.9 µM		> 58.3 µM		> 26.8 µM					36.9 µM	> 100 µM		
COc1cc(OC)cc(-c2nc3ccccc3c(=O)[nH]2)c1		> 100 µM		> 100 µM		> 100 µM		> 100 µM		> 100 µM		> 100 µM					> 100 µM	> 100 µM	> 100 µM	
O=S1(=O)OCCOS(=O)(=O)C1S(=O)(=O)c1cccc2ccccc12		> 100 µM		> 100 µM		> 100 µM		> 100 µM		> 100 µM		> 100 µM		> 100 µM			> 100 µM			
CCOC(=O)c1sc2[n+](c1C)C(=O)/C(=C/c1ccccc1Cl)S2		15.7 µM		24.4 µM		19.1 µM		> 85.6 µM				12.9 µM		15 µM			> 72.8 µM	19.3 µM	> 42.7 µM	
Cc1nc2cccc(F)c2c(=O)n1-c1nnc(C2CC2)s1		> 10 µM		> 10 µM		> 10 µM		> 10 µM				> 10 µM		> 10 µM			> 10 µM	> 10 µM	> 10 µM	
Cn1c(-c2cccs2)cc(-c2ccsc2)c1-c1ccsc1				> 100 µM				> 100 µM		> 100 µM		> 100 µM		> 100 µM			> 100 µM	> 100 µM	> 100 µM	
Oc1[nH]c2ccccc2c1N=NC(=S)NCc1ccccn1		53.9 µM		6.22 µM		15.3 µM		17.5 µM		17.5 µM		33.2 µM		14.1 µM				2.6 µM	15.2 µM	
Fc1sc2c(c1F)C1CCC2C1 (stereo unspecified)		87.1 µM		> 100 µM		> 100 µM		> 100 µM				> 100 µM		> 100 µM				> 100 µM	> 100 µM	
O=c1cc(-c2ccccc2)[nH]c2c(F)ccc(F)c12		> 100 µM		> 100 µM		> 100 µM						> 100 µM					> 100 µM	> 100 µM		
CC(=O)O[C@H]1CC[C@]2(C=O)[C@H]3CC[C@]4(C)[C@@H](C5=CC(=O)OC5)CC[C@]4(O)[C@@H]3CC[C@]2(O)C1		3.21 µM		0.559 µM		0.933 µM		1.38 µM		0.575 µM		0.455 µM					> 31.6 µM	1.1 µM	2.24 µM	

SMILES	GI50 (RPMI-8226 leukemia)	TGI (RPMI-8226 leukemia)	GI50 (U251 CNS)	TGI (U251 CNS)	GI50 (LOX IMVI melanoma)	TGI (LOX IMVI melanoma)	GI50 (PC-3 prostate)	TGI (PC-3 prostate)	GI50 (BT-549 breast)	TGI (BT-549 breast)	GI50 (HCT-15 colon)	TGI (HCT-15 colon)	GI50 (MCF7 breast)	TGI (MCF7 breast)	GI50 (CCRF-CEM leukemia)	GI50 (SNB-19 CNS)	TGI (CCRF-CEM leukemia)	TGI (UACC-62 melanoma)	TGI (SNB-19 CNS)	GI50 (UACC-62 melanoma)
CCOC(=O)C1=C(C)N(c2ccc(Cl)cc2)C2(O)C=CC(=O)C3C(=O)N(c4ccccc4)C(=O)C132 (stereo unspecified)		3.77 µM		5.39 µM		3.69 µM		3.49 µM		5.8 µM		4.37 µM		4.06 µM				3.63 µM	8.1 µM	
CN(C)CC(C)(C)C(=O)/C=C/c1ccccc1		56.6 µM		30.5 µM		25.6 µM						26.9 µM					23.2 µM	26.5 µM	31.4 µM	
CCCCCC(=O)OCC1(CO)C/C(=C/CC(C(C)C)C(C)C)C(=O)O1 (stereo unspecified)				> 75 µM		20.5 µM		> 75 µM		> 75 µM		> 75 µM		> 75 µM			68.7 µM	> 75 µM	> 75 µM	
C/C(=N/OCCC(=O)O)C1CC1		> 100 µM		> 100 µM		> 100 µM						> 100 µM					> 100 µM	> 100 µM	> 100 µM	
CCC(C)Cn1c(C)nc2c1C(=O)c1ccccc1C2=O (stereo unspecified)				> 100 µM		66.7 µM						> 100 µM					96.8 µM	27.5 µM	> 100 µM	
CC1CN=C(N(C(=O)Nc2ccccc2)C2CCCCC2)S1 (stereo unspecified)		49.7 µM		30.8 µM		27.1 µM		31.3 µM				28.9 µM		31.8 µM			53.7 µM		81.8 µM	
Oc1cccc(-c2cn3cc(Cl)ccc3n2)c1				> 100 µM		> 100 µM		> 100 µM		> 100 µM		> 100 µM		> 100 µM			81.5 µM	> 100 µM	> 100 µM	
COc1ccc(C2CCc3c(cnc4nc(N)nc(N)c34)C2)cc1 (stereo unspecified)		> 100 µM		> 100 µM		> 100 µM		> 100 µM		> 100 µM		> 100 µM		45.1 µM				> 100 µM	> 100 µM	
CC(C)c1cc(C(C)C)c(B(c2ccccc2)c2ccccc2)c(C(C)C)c1Br				> 100 µM		> 100 µM		> 100 µM		> 100 µM		> 100 µM		> 100 µM			> 100 µM	> 100 µM	> 100 µM	
Cc1cc(N)c2cc(NC(=O)CCCCCCCCC(=O)Nc3ccc4nc(C)cc(N)c4c3)ccc2n1		> 100 µM		49.3 µM		> 100 µM						> 100 µM					> 61.3 µM	> 100 µM	> 100 µM	
N#Cc1c(NC(=S)Nc2ccccc2)sc2c1CCCC2		> 100 µM		> 100 µM		> 100 µM		> 100 µM		> 100 µM		> 100 µM		> 100 µM				> 100 µM	> 100 µM	
CC1C/C(=C\c2ccc(O)c(O)c2)C(=O)/C(=C/c2ccc(O)c(O)c2)C1 (stereo unspecified)				18.1 µM		23.4 µM		29.9 µM				25.5 µM		14.8 µM			7.2 µM	13.6 µM	22.5 µM	
c1ccc(C2C3=C(CCCC3)Nc3nnnn32)cc1 (stereo unspecified)				> 100 µM		> 100 µM		> 100 µM		98.4 µM		> 100 µM		> 100 µM				> 100 µM	> 100 µM	
COc1cccc2c1C(=O)c1c(O)c3c(c(O)c1C2=O)C[C@@](O)(C(=O)CO)CC3OC1CC(NCCCCC(OC(C)=O)OC(C)=O)C(O)C(C)O1 (stereo partly specified)	0.528 nM	0.00313 µM	2.66 nM		0.488 nM	0.00829 µM and 0.0302 µM						> 1 µM			0.538 nM		0.0118 µM	0.00374 µM and 0.00228 µM	> 1 µM	0.655 nM
COc1ccc(C2=C(N)c3cc(OC)ccc3C2=O)cc1		> 100 µM		> 100 µM		> 100 µM		> 100 µM		> 100 µM		> 100 µM		> 100 µM				> 100 µM	> 100 µM	
CC(=O)c1nc(C#N)c(N)o1		> 100 µM		> 100 µM		> 100 µM		> 100 µM				> 100 µM		> 100 µM			> 100 µM	> 100 µM	> 100 µM	
N#CC(NNC(=O)c1c(Cl)c(Cl)c(Cl)c(Cl)c1-c1nc2ccc(C(=O)c3ccccc3)cc2[nH]1)c1cccc(Oc2ccccc2)c1 (stereo unspecified)		91.8 µM		> 100 µM		> 100 µM		54 µM		64.8 µM		53.3 µM		65.6 µM			29 µM		90 µM	
